Experimental data reported in ChEMBL document CHEMBL5291721, “A preclinical secondary pharmacology resource illuminates target-adverse drug reaction associations of marketed drugs” (Nat Commun, 2023).

What was measured:
[1] = target: T1, Muscarinic acetylcholine receptor M1 (Homo sapiens, UniProt P11229); type: functional
T1 sequence (P11229 whole entry): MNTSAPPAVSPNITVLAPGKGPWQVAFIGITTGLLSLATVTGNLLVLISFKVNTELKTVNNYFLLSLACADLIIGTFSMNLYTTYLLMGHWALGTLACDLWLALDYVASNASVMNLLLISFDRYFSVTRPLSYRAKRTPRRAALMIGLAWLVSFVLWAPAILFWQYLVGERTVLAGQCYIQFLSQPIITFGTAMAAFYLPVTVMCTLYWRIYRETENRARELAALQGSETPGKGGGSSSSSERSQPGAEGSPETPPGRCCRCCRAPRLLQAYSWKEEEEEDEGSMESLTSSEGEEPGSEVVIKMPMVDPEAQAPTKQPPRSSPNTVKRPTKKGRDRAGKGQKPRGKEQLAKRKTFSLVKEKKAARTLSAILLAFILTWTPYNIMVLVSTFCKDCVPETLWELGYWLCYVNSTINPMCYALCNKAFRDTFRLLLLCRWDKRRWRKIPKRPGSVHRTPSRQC

[2] = target: Cannabinoid receptor 1 (Homo sapiens, UniProt P21554); type: functional, cell-based
[3] = target: T2, Endothelin-1 receptor (Homo sapiens, UniProt P25101)
T2 sequence (P25101 whole entry): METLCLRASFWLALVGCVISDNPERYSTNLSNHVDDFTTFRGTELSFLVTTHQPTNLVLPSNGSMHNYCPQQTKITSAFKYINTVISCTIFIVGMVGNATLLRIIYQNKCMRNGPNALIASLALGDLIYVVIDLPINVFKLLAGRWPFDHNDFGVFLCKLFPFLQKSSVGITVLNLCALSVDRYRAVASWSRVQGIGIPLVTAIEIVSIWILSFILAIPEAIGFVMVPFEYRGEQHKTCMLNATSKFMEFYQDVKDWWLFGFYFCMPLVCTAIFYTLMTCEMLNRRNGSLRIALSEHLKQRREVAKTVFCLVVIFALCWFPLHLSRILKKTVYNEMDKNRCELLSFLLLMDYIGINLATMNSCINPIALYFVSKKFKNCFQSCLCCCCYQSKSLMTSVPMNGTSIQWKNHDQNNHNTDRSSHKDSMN

[4] = target: Gamma-aminobutyric acid receptor subunit alpha-1 (Rattus norvegicus, UniProt P62813)
[5] = target: Histamine H1 receptor (Homo sapiens, UniProt P35367)
[6] = target: T3, 5-hydroxytryptamine receptor 1A (Homo sapiens, UniProt P08908); type: functional, cell-based
T3 sequence (P08908 whole entry): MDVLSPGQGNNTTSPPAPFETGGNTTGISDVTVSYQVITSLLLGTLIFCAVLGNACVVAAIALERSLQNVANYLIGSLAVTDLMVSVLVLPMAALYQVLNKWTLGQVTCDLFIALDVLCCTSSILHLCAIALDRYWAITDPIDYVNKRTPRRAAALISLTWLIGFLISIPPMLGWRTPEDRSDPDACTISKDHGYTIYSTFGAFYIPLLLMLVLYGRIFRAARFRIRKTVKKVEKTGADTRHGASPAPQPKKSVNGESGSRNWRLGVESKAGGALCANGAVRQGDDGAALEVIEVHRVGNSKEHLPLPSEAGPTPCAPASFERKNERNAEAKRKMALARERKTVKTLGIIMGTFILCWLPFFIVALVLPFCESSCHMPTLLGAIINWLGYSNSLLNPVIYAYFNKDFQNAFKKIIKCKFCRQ

[7] = target: T3, 5-hydroxytryptamine receptor 1A
[8] = target: T4, Progesterone receptor (Homo sapiens, UniProt P06401)
T4 sequence (P06401 whole entry): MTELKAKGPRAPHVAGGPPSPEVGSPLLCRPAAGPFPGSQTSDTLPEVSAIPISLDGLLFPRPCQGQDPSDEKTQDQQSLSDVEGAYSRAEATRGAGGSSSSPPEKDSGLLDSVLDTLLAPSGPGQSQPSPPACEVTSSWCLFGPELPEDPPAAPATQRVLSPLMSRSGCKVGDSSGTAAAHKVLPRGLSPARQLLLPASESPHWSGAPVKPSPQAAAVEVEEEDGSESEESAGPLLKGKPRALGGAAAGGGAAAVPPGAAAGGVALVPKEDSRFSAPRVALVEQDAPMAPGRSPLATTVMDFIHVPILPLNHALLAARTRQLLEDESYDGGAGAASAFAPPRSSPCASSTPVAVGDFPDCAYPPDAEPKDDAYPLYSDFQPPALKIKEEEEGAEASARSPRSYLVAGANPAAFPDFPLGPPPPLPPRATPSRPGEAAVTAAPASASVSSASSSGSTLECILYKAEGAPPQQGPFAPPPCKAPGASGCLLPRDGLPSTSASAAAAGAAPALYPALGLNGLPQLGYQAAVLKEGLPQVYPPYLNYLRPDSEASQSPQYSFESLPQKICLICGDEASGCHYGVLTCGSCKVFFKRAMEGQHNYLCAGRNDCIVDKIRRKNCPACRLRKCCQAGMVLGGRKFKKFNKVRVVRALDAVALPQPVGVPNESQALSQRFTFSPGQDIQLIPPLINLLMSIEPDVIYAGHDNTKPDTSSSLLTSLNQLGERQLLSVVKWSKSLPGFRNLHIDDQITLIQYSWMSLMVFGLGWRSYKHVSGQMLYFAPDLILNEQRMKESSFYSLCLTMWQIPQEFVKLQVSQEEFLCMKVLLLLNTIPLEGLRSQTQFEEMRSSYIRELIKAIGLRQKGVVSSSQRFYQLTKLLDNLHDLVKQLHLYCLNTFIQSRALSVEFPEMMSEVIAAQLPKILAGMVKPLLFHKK

[9] = target: Prostaglandin G/H synthase 1 (Homo sapiens, UniProt P23219); type: functional
Further: assay procedure not described here.

Sequence of Histamine H1 receptor (P35367 whole entry): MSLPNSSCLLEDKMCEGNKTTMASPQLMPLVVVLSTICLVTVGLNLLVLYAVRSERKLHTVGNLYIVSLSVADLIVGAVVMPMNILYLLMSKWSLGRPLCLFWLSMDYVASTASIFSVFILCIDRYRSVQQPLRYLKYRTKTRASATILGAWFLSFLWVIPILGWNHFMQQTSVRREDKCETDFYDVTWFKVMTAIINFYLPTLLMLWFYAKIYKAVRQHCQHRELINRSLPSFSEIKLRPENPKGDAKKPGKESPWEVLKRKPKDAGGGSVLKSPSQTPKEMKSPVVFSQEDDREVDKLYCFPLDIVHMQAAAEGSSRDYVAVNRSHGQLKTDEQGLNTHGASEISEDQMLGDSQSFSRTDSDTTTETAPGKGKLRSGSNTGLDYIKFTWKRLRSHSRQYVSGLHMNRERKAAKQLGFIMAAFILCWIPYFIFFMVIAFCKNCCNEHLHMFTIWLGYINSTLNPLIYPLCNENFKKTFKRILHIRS
Sequence of Gamma-aminobutyric acid receptor subunit alpha-1 (P62813 whole entry): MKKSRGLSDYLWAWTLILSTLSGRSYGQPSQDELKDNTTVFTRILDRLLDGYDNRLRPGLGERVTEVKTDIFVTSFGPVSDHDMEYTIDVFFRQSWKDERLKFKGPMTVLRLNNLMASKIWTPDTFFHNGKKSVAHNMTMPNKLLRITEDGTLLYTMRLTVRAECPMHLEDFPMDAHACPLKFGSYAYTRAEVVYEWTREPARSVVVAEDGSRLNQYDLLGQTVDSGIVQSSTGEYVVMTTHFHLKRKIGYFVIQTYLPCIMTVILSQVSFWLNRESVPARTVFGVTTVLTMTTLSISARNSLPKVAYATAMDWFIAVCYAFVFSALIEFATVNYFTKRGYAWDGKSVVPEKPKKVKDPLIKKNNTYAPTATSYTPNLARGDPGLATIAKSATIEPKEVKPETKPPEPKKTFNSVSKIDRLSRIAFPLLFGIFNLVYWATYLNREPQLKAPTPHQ
Sequence of Cannabinoid receptor 1 (P21554 whole entry): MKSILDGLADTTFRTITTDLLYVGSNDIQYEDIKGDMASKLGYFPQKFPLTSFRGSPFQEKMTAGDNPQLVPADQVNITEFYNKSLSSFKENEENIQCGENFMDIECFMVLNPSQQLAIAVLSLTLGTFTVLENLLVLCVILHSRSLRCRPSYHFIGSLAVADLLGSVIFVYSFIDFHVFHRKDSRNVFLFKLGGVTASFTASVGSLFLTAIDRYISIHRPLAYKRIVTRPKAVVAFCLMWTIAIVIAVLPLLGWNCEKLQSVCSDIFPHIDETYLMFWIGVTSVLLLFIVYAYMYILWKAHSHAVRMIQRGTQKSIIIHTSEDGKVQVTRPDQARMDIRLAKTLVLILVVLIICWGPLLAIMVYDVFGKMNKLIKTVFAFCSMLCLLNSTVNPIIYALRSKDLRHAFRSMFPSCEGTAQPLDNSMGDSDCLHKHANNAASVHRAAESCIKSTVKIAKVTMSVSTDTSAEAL
Sequence of Prostaglandin G/H synthase 1 (P23219 whole entry): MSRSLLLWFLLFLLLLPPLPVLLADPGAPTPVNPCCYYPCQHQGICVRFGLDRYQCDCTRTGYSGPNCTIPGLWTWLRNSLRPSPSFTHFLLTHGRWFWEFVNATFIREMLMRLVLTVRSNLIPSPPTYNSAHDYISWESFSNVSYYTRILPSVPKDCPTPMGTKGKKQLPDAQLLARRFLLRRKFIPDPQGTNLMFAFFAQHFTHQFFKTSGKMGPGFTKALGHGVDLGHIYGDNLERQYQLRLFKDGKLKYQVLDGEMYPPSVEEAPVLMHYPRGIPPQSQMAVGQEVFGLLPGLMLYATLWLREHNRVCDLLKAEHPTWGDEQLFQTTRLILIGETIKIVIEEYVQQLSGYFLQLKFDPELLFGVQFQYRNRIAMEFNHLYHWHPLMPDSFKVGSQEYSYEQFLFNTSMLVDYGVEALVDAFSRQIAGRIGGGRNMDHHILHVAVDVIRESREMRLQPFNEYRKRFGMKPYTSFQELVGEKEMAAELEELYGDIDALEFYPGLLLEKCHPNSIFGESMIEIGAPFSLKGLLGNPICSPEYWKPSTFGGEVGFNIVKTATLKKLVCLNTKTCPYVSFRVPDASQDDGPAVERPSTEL

| Structure (SMILES) | AC50 [1] [µM] | AC50 [2] [µM] | AC50 [3] [µM] | AC50 [4] [µM] | AC50 [5] [µM] | AC50 [6] [µM] | AC50 [7] [µM] | AC50 [8] [µM] | AC50 [9] [µM] |
| --- | --- | --- | --- | --- | --- | --- | --- | --- | --- |
| Cn1nnc2c(C(N)=O)ncn2c1=O [TEMOZOLOMIDE] | > 30 | > 30 | > 30 | > 10 | > 30 | > 30 | – | – | – |
| CNC1Cc2ccccc2N(C)c2ccccc21 (stereo not drawn) [METAPRAMINE] | > 30 | > 30 | > 30 | – | 0.34 | > 30 | – | – | – |
| CN(C)CCC=C1c2ccccc2C(C)(C)c2ccccc21 | 0.129 | > 30 | > 30 | – | 0.0369 | > 30 | – | – | – |
| C[C@H]1CNCCc2ccc(Cl)cc21 [LORCASERIN] | > 30 | 2.6 | > 30 | – | 28 | 4.4 | – | – | – |
| CNC(=O)c1ccccc1Sc1ccc2c(/C=C/c3ccccn3)n[nH]c2c1 [AXITINIB] | > 30 | > 30 | > 30 | – | > 30 | > 30 | – | – | – |
| CC(=O)Nc1ccc(O)cc1 [ACETAMINOPHEN] | – | > 30 | > 30 | – | – | > 30 | > 30 | > 30 | – |
| NCC(CC(=O)O)c1ccc(Cl)cc1 (stereo not drawn) [BACLOFEN] | – | > 30 | > 30 | > 10 | – | > 30 | > 30 | > 30 | > 30 |
| Cc1cn([C@H]2C=C[C@@H](CO)O2)c(=O)[nH]c1=O [STAVUDINE] | – | > 30 | > 30 | > 10 | – | > 10 | > 30 | > 30 | > 30 |
| COc1ccc(CC(C)(C)NC[C@H](O)c2cc(O)cc3c2OCC(=O)N3)cc1 [OLODATEROL] | > 30 | > 30 | > 30 | – | > 30 | 29 | – | – | – |
| CO[C@H]1C[C@@H]2CC[C@@H](C)[C@@](O)(O2)C(=O)C(=O)N2CCCC[C@H]2C(=O)O[C@H]([C@H](C)C[C@@H]2CC[C@@H](O)[C@H](OC)C2)CC(=O)[C@H](C)/C=C(\C)[C@@H](O)[C@@H](OC)C(=O)[C@H](C)C[C@H](C)/C=C/C=C/C=C/1C [SIROLIMUS] | – | > 30 | > 30 | > 10 | – | > 10 | > 30 | > 30 | 26.6 |
| c1cnc(N2CCN(Cc3ccc4c(c3)OCO4)CC2)nc1 [PIRIBEDIL] | > 30 | > 30 | > 30 | – | > 30 | 20 | – | – | – |
| CS(=O)(=O)c1ccc(C2=C(c3ccccc3)C(=O)OC2)cc1 [ROFECOXIB] | – | > 30 | > 30 | > 10 | – | 35 | > 30 | > 30 | – |
| Cc1cn([C@H]2C[C@H](N=[N+]=[N-])[C@@H](CO)O2)c(=O)[nH]c1=O [ZIDOVUDINE] | – | > 30 | > 30 | > 10 | – | > 10 | > 30 | > 30 | > 30 |
| CC(C)C[C@H]1C(=O)N2CCC[C@H]2[C@]2(O)O[C@](NC(=O)[C@@H]3C=C4c5cccc6[nH]c(Br)c(c56)C[C@H]4N(C)C3)(C(C)C)C(=O)N12 [BROMOCRIPTINE] | – | > 30 | > 30 | > 10 | – | 0.17 | 0.003 | > 30 | 2.49 |
| CC[C@H]1OC(=O)[C@H](C)[C@@H](O[C@H]2C[C@@](C)(OC)[C@@H](O)[C@H](C)O2)[C@H](C)[C@@H](O[C@@H]2O[C@H](C)C[C@H](N(C)C)[C@H]2O)[C@](C)(O)C[C@@H](C)CN(C)[C@H](C)[C@@H](O)[C@]1(C)O [AZITHROMYCIN] | – | > 30 | > 30 | > 30 | – | > 10 | > 30 | > 30 | > 30 |
| C[C@]12CCC(=O)C=C1CC[C@@H]1[C@@H]2[C@@H](O)C[C@@]2(C)[C@H]1CC[C@]2(O)C(=O)CO [HYDROCORTISONE] | – | > 30 | > 30 | > 10 | – | > 10 | – | – | – |
